Consider two compounds from PubChem BioAssay AID1963420 (Molecular Pharmacology Branch, DTP, NCI, 2024).

Values joined by “and” are separate entries in the source; they are usually repeats but may differ in a detail not shown here. Equal values may be shown once.

The subject of the test is 494315-158-R-J1-PDC complex spheroid growth, percent test/control. The test can be described thus: Anticancer human tumor 494315-158-R-J1-PDC patient-derived soft tissue sarcoma cell line growth inhibition [Asc]. The conditions noted are these: for viability, T/C: stronger effect = lower value. An outline of the steps:
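Complex spheroids combining tumor cells with HUVEC endothelial cells and human MSCs, at 37 degrees C, 5% CO2; agents tested alone or combined, half-log dilutions from at or near clinical Cmax, or 10 microM if Cmax unknown.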
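Also: compound exposure lasted seven days after spheroids formed for three days.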

`CCN1CCN(Cc2ccc(Nc3ncc(F)c(-c4cc(F)c5nc(C)n(C(C)C)c5c4)n3)nc2)CC1` + Cc1c(S(C)(=O)=O)c(-c2cc(F)cc(N3CCN(c4ccc(NS(=O)(=O)c5ccc(NC(CCN6CCC(C(=O)OCCCP(=O)(O)O)CC6)CSc6ccccc6)c(S(=O)(=O)C(F)(F)F)c5)cc4)CC3)c2)c(-c2ccc(Cl)cc2)n1C(C)C: the IC50 by setting is: (curve of first compound, second compound 0.1 µM) over 1 µM; (curve of first compound, second compound 0.316 µM) 0.829 µM; (curve of first compound, second compound 1 µM) over 1 µM; (curve of first compound, second compound 3.16 µM) 0.272 µM; (curve of first compound, second compound 10 µM) 0.725 µM. For the same compound, the viability, T/C by setting is: (second compound 0.1 µM, first compound 0.00316 µM) 75.6%; (second compound 0.1 µM, first compound 0.01 µM) 83%; (second compound 0.1 µM, first compound 0.0316 µM) 78.3%; (second compound 0.1 µM, first compound 0.1 µM) 77.1%; (second compound 0.1 µM, first compound 0.316 µM) 77.8%; (second compound 0.1 µM, first compound 1 µM) 53.6%. The viability, T/C (second compound 0.316 µM, first compound 0.00316 µM) was 72.2%; the viability, T/C (second compound 0.316 µM, first compound 0.01 µM) is 79.8%; the viability, T/C (second compound 0.316 µM, first compound 0.0316 µM) is 78%; the viability, T/C (second compound 0.316 µM, first compound 0.1 µM) was 67.1%; the viability, T/C (second compound 0.316 µM, first compound 0.316 µM) was 70.9%; the viability, T/C (second compound 0.316 µM, first compound 1 µM) is 46.1%. For the same compound, the viability, T/C reads like this: (second compound 1 µM, first compound 0.00316 µM) 61.9%; (second compound 1 µM, first compound 0.01 µM) 65.7%; (second compound 1 µM, first compound 0.0316 µM) 68%; (second compound 1 µM, first compound 0.1 µM) 65.7%; (second compound 1 µM, first compound 0.316 µM) 61.6%; (second compound 1 µM, first compound 1 µM) 41.1%. Further, the viability, T/C reads like this: (second compound 3.16 µM, first compound 0.00316 µM) 56.1%; (second compound 3.16 µM, first compound 0.01 µM) 52%; (second compound 3.16 µM, first compound 0.0316 µM) 54.3%; (second compound 3.16 µM, first compound 0.1 µM) 61.4%; (second compound 3.16 µM, first compound 0.316 µM) 46.2%; (second compound 3.16 µM, first compound 1 µM) 31.3%. Moreover, the viability, T/C (second compound 10 µM, first compound 0.00316 µM) was 79%; the viability, T/C (second compound 10 µM, first compound 0.01 µM) was 81%; the viability, T/C (second compound 10 µM, first compound 0.0316 µM) is 73.2%; the viability, T/C (second compound 10 µM, first compound 0.1 µM) is 76.7%; the viability, T/C (second compound 10 µM, first compound 0.316 µM) was 73.3%; the viability, T/C (second compound 10 µM, first compound 1 µM) was 41%.

Consider `C=C(F)C(=O)N1CCN(c2nc(OCC3CCCN3C)nc3c2CCN(c2cccc4cccc(Cl)c24)C3)CC1CC#N` (configuration not stated), for which the viability, T/C by setting is: (compound 0.0316 µM) 89.2% and 99.6% and 84.3%; (compound 0.1 µM) 92.5% and 97.5% and 96.5%; (compound 0.316 µM) 88.7% and 82.5% and 97.6%; (compound 1 µM) 84.9% and 84.5% and 86.7%; (compound 3.16 µM) 62% and 51.7% and 68.6%; (compound 10 µM) 0.23% and 0.25% and 0.24%. Moreover, the IC50 (curve of compound) is 3.95 µM and 3.36 µM and 4.31 µM.

As usually defined, the IC50 is the concentration that inhibits the measured activity by half. A word on the viability, T/C: it is the result in the treated group divided by that in the control group, in per cent.
